Results from patent publication US8597904B2, “Pharmaceutical compositions for the treatment of conditions responsive to proteasome inhibition” (priority 2007, dated 2013).

What was measured:
[1] = tested on: SK-N-SH cells; assay: Cytox-Glo cytotoxicity assay; assay type: cell-based, human; conditions: for cytotoxicity: 0.25 μM GlbA or 25 μM SylA, 48 hours; for cytotoxicity in the presence of 3-MA: pre-treated with 3-MA
Experimental: Determination of potential cytotoxic effects by GlbA and/or […] was carried out by using the Cytox-Glo cytotoxicity assay, which measures “dead cell proteases” from cells that have lost membrane integrity. Briefly, cells were treated with a single concentration of compound for 48 hours in a final volume of 100 μl, after which 50 μl of AAF-Glo luminogenic peptide substrate (alanyl-alanyl-phenylalanyl-aminoluciferin) was added to each well and incubated for 15 min at room temperature. The luminescence was measured by a Dynex MLX luminometer to give a reading of cells with damaged membranes. Next, 50 μl of digitonin was added to each well and the samples incubated for 15 minutes at room temperature. Luminescence was measured a second time to determine total cell number. Controls included cells with vehicle only, media, and media with compound.
SK-N-SH cells were treated with 0.25 μM GlbA or 25 μM SylA and SKOV3 cells were treated with 1.0 μM GlbA or 25 μM SylA. As illustrated in FIGS. 16A and 16B, control cells (treated with DMSO and H2O representing GlbA and SylA controls, respectively) were viable and no cytotoxicity was detected.
To determine if autophagy plays a role in GlbA/SylA-induced cell death, levels of cytotoxicity in cells pre-treated with 3-methyladenine (3-MA), an established autophagy inhibitor, were measured using the assay described in Example 12.

[2] = tested on: ubiquitinated proteins; assay: immunoblot of total ubiquitinated proteins in SK-N-SH cells; assay type: cell-based, human; conditions: for increase of ubiquitinated proteins: 24 hours of treatment
Experimental: As inhibition of the proteasome is expected to result in increased levels of ubiquitinated proteins (Meng, et al. 1999. Proc. Natl. Acad. Sci. U.S.A. 96:10403-10408, which is incorporated herein by reference in its entirety), the effect of syringolin A on total ubiquitinated protein accumulation was analyzed by immunoblot analysis. To do so, SK-N-SH cells were seeded in 6-well cell culture plates at a concentration of 3.8×10^5 cells per ml (1.98 ml per well). After 24 hours, 20 μl of syringolin A (final concentration 25 μM) or cell culture medium (control, C) was added. For time-course experiments, cell treatments were staggered in order to process all samples at the same time after 24 hours. Cell lysates were prepared as previously reported (Wallick, et al. 2005. Oncogene 24:5606-5618, which is incorporated herein by reference in its entirety). Sodium dodecyl sulfate-polyacrylamide gel electrophoresis (SDS-PAGE), electro transfer to PVDF Immobilon-P membranes (Millipore) and antibody incubations were performed according to standard procedures. The primary antibodies used were rabbit whole serum ubiquitin (1:150) (U5379; Sigma), mouse monoclonal tumor suppressor protein p53 (1:250) (se-126; Santa Cruz Biotechnology), and rabbit monoclonal α-tubulin (1:1,500) (11H10; Cell Signaling Technology). Horse radish peroxidase (HRP)-conjugated anti-mouse or anti-rabbit antibodies (1:5,000) were used as secondary antibodies. Membranes were developed using the ECL Plus kit following the manufacturer's protocol (Amersham Biosciences) and exposed to Blue Lite Autorad Film (ISC BioExpress). Membranes were stripped with ECL stripping buffer (62.5 mM Tris-HCL, pH 6.7, 2% SDS, 100 mM β-mercaptoethanol) for 20 min at 55° C. and sequentially re-probed with the next antibody.
To further examine the inhibitory effect, whole cell lysates of GlbA-treated or untreated control cells were analyzed by Western blot and ubiquitinated proteins detected at endogenous levels.

[3] = biological target: T1, yeast 20S proteasome (Saccharomyces cerevisiae, UniProt P25043+P30656+P38624); assay: cocrystallization with 20S proteasome, X-ray crystallography; assay type: binding; conditions: crystal structure of complex
T1 construct: each was cocrystallized with the yeast 20S proteasome; host or cells: yeast
Experimental: To elucidate the binding mode of syringolin. A and glidobactin A to the proteasome, each was cocrystallized with the yeast 20S proteasome. Crystals of the 20S proteasome were grown in hanging drops at 24° C. as described (Grail et al. 1997. Nature 386:463-471; Groll and Huber. 2005. Methods Enzymol. 398:329-336, each which is incorporated herein by reference in its entirety) and incubated for 60 min with syringolin A or glidobactin A. The protein concentration used for crystallization was 40 mg/ml in Tris-HCI (10 mM, pH 7.5) and EDTA (1 mM). The drops contained 3 μL of protein and 2 μL of the reservoir solution (30 mM magnesium acetate, 100 mM morpholino-ethane-sulphonic acid (pH 7.2) and 10% MPD), X-ray diffraction data to 2.9 Å for the yeast 20S proteasome:syringolin A and to 2.7 Å for the 20S proteasome:glidobactin A-complex were collected using synchrotron radiation with λ=1.05 Å on the BW6-beamline at DESY/Hamburg/Germany and with λ=1.0 Å on the […] at SLS/Villingen/Switzerland, respectively. Crystals were soaked in cryoprotecting buffer (30% MPD, 20 mM magnesium acetate, 100 mM morpholino-ethane-sulfonic acid pH 6.9) and frozen in a stream of liquid nitrogen gas at 90 K (Oxford Cryo Systems). X-ray intensities were evaluated by using the DENZO program package (Otwinowski and Minor. 1997. Methods Enzymol 276:307-326) and data reduction was performed with CCP4 (Potterton et al. 2003. Acta Crystallogr. D Biol. Crystallogr. 59:1131-1137). The space group belongs to P21 with cell dimensions of about a=134 Å, b=302 Å, c=144 Å and β=112° (Table 1). The anisotropy of diffraction was corrected by an overall anisotropic temperature factor by comparing observed and calculated structure amplitudes using the program CNS (Brünger et al. 1998. Acta Crystallogr. D Biol. Crystallogr. 54: 905-921, which is incorporated herein by reference in its entirety). […]

## CCCCCCC/C=C/C=C/C(=O)N[C@H](C(=O)N[C@H]1C[C@@H](O)CCNC(=O)/C=C/[C@H](C)NC1=O)[C@@H](C)O [glidobactin A]
[1]
  cytotoxicity: about 40%
  cytotoxicity in the presence of 3-MA: significantly reduced
[2]
  increase of ubiquitinated proteins: 3 fold
[2]; ubiquitinated proteins
  lower concentration of GlbA inducing effects comparable to SylA: 100 fold
[3]
  binding mode at proteasome active sites: same mechanism of inactivation
  binding to the caspase-like active site: did not bind

## CC(C)[C@H](NC(=O)N[C@H](C(=O)N[C@H]1/C=C/CCNC(=O)/C=C/[C@H](C(C)C)NC1=O)C(C)C)C(=O)O [syringolin A]
[1]
  cytotoxicity: ~30%
  cytotoxicity in the presence of 3-MA: significantly reduced
[2]; 25 μM, time-course
  accumulation of ubiquitinated proteins: time-dependent accumulation of ubiquitinated proteins
[2]
  increase of ubiquitinated proteins: 3 fold
[3]
  binding mode at proteasome active sites: covalently binds to the hydroxy group of the active site N-terminal threonine
